In BindingDB's records for doi:10.1016/0960-894X(96)00174-6 (n/a, 1996) one finds IC50 data, which are given here for 8 compounds.

The assay addresses T1, 5-hydroxytryptamine receptor 2C (Homo sapiens, UniProt P28335).
T1 sequence (P28335 whole entry): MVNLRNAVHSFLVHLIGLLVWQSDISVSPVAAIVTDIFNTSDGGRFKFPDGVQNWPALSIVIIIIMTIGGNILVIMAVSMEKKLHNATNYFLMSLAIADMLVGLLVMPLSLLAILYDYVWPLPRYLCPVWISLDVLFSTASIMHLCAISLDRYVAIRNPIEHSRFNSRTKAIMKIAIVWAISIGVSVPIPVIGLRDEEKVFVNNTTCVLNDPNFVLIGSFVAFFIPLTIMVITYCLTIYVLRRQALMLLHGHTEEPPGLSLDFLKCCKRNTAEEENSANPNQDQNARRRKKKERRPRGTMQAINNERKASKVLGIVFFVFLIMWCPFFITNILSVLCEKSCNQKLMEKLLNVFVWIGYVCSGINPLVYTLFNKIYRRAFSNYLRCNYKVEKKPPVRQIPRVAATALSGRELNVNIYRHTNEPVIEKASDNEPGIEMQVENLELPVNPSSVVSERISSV
The assay can be described thus: ChEBML_3050. An excerpt:
Binding affinity towards 5-hydroxytryptamine 2C receptor by displacement of [3H]N-methyl-mesulergine
In the case of `CCCN(CCC)CC1(N(CCC)CCC)COc2cccc(OC)c2C1` (stereo not drawn), the midpoint of inhibition, the IC50, lay at 30.2 µM. In the case of `CCCN1CCN(Cc2ccccc2)CC12COc1cccc(OC)c1C2` (stereo not drawn), the IC50 – broadly, the concentration that inhibits the measured activity by half – is 38.9 µM. The compound `CCCN1CCN(CCCCN2C(=O)CC3(CCCC3)CC2=O)CC12COc1cccc(OC)c1C2` (stereo not drawn) returned an IC50 of 30.9 µM. Under `COc1cccc2c1CC1(CCCN1CCCCN1C(=O)CC3(CCCC3)CC1=O)CO2` (racemic) [(+/-) 8-{4-[5-methoxyspiro[3,4-dihydro-2H-chromene-3,2'-(tetrahydro-1'H-pyrrole)]-1-yl]butyl}-8-azaspiro[4.5]decane-7,9-dione] stands 10.5 µM; under `O=C1CC2(CCCC2)CC(=O)N1CCCCNCC1COc2ccccc2C1` (stereo not drawn), 1.23 µM; under `CCCN1CCN(CCC)C2(COc3cccc(OC)c3C2)C1` (stereo not drawn), 468 µM. The value for `CCCN(CCCCN1C(=O)CC2(CCCC2)CC1=O)CC1COc2cccc(OC)c2C1` (stereo not drawn) was 3.16 µM; that for `COc1cccc2c1CC(CNCCCCN1C(=O)CC3(CCCC3)CC1=O)CO2` (stereo not drawn) was 0.169 µM.
